Results from ChEMBL document CHEMBL1134281, “Monosaccharide-linked inhibitors of O(6)-methylguanine-DNA methyltransferase (MGMT): synthesis, molecular modeling, and structure-activity relationships” (J Med Chem, 2001).
pIC50: −log10 of the molar value.

Biological target: T1, Methylated-DNA--protein-cysteine methyltransferase (Homo sapiens, UniProt P16455)
T1 sequence (P16455 whole entry): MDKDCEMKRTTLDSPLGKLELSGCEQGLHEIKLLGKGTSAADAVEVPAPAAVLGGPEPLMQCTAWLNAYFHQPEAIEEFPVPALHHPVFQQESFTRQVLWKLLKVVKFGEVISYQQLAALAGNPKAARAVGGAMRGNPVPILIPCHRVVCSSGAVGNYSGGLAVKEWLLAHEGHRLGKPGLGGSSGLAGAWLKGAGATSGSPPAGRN
Assay: In vitro inhibition of MGMT using cell free extracts from HeLa S3 cells

Structure (SMILES) | pIC50
Nc1nc(OCc2cc(Br)cs2)c2[nH]cnc2n1 [LOMEGUATRIB] | 8.05
Nc1nc(OCc2ccccc2)c2[nH]nnc2n1 | 7.42
